Where a name gives a salt, the structure may show the parent alone. Read-outs that look alike come from different tables or passages of the source.
Tests used:
transmitter release = conditions: co-administered with calcium chelator BAPTA/AM; ref Di Virgilio et al. 1988; cited from earlier work
[1] = test system: α-MSH-induced [Ca2+]i in HEK293 cells; conditions: cited from earlier work

Question: Which results are given for “ethylene glycol-bis (β-aminoethyl ether)-N,N,N′,N′-tetraacetic acid [EGTA]”?
Answer: EGTA chelation of calcium in specific Rmin wells ([Ca2+]i in HEK293 cells; EGTA 5.5 mM final, cells co-loaded with Fura-2/AM and 10 µM EGTA in DMEM, probenecid 1 mM in esterase buffer, three independent experiments): chelated calcium in the presence of either Ca^2+-free-HG buffer or Ca^2+-free-Ward buffer; effect of EGTA injection on basal calcium signal, optimised assay conditions (with probenecid) ([Ca2+]i in HEK293 cells; cell monolayers, EGTA 10 µL of 165 mM stock): did not reduce basal calcium signal; EGTA effect on fluorescence ratio (340/380), specific Rmin wells ([Ca2+]i in HEK293 cells; cells depleted of calcium by EGTA prior to imaging, calcium-free buffer): rapid small decrease in fluorescence 340/380 ratio; EGTA effect on fluorescence ratio (340/380), with probenecid ([Ca2+]i in HEK293 cells; in the presence of probenecid): either has no effect on fluorescence ratio or increases the fluorescence ratio

Question: What does the source list for `CCCN(CCC)S(=O)(=O)c1ccc(C(=O)O)cc1` [probenecid]?
Answer: effect on transmitter release (transmitter release): profound and prolonged attenuation of transmitter release; retention of Fura-2 in cells (HEK293 cells; probenecid 1 mM vs 2.5 mM): 1 mM probenecid worked as efficiently as 2.5 mM for Fura-2 retention; retention of Fura-2/AM and Fura-2 in cells (HEK293 cells; probenecid 2.5 mM, three independent experiments): retains Fura-2/AM and Fura-2 in HEK293 cell monolayers; interference with EGTA chelation of calcium ([Ca2+]i in HEK293 cells; probenecid 1 mM in CLB-HG, Ca2+-free buffer-HG, -Ward or -Ion Optix, Supplementary Fig. 7): interfered with EGTA chelation of calcium; interference with EGTA chelation of calcium ([Ca2+]i in HEK293 cells; probenecid 0.5–2.5 mM, pluronic acid, Supplementary Fig. 5): interferes with EGTA chelation of calcium

Question: Which “ionomycin effect on calcium signal” value ([Ca2+]i in HEK293 cells; presence or absence of probenecid, ionomycin 10 µL of 0.33 mM stock in DMSO) does the source give for `C[C@H](CCC(=O)O)C[C@H](C)C[C@H](C)C(=O)/C=C(\O)[C@H](C)C[C@H](C)C/C=C/[C@@H](C)[C@@H](O)[C@@H](C)[C@@H](O)C[C@@H]1CC[C@@](C)([C@H]2CC[C@@](C)([C@@H](C)O)O2)O1` [ionomycin, ionomycin calcium salt] here?
Answer: rapid increase in calcium signal

Question: Which “effect on α-MSH-induced [Ca2+]i” value [1] does the source give for cholera toxin here?
Answer: significantly attenuated

Reference: paper PMC8111326 (Journal of Molecular Endocrinology, 2021)
